Data as given in patent publication US20150105252A1, “SUBSTITUTED PYRAZOLES AS HERBICIDES” (E I DU PONT DE NEMOURS AND COMPANY, priority 2013, published 2015).

Legend:
crabgrass, large [1] = assay: Test A preemergence; assay type: in vivo, Digitaria sanguinalis; conditions: preemergence; for Crabgrass, Large plant response rating (0 to 100 scale): 125 g ai/ha, visual injury approx. 10 days after treatment; for Crabgrass, Large plant response rating: 500 g ai/ha, visual injury after approx. 10 days, 0 to 100 scale (0 no effect, 100 complete control)
Procedure, shortened: (§1)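 After sowing in a sand–loam mix, pots received compound preemergence by directed soil spray, or postemergence once plants reached the one- to two-leaf stage (2–10 cm). Formulation contained surfactant in a non-phytotoxic solvent. Injury was scored visually after ~10 greenhouse days, 0–100 scale.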

velvetleaf = assay: Test A preemergence; assay type: in vivo, Abutilon theophrasti; conditions: preemergence; for Velvetleaf plant response rating (0 to 100 scale): 125 g ai/ha, visual injury approx. 10 days after treatment; for Velvetleaf plant response rating: 500 g ai/ha, visual injury after approx. 10 days, 0 to 100 scale (0 no effect, 100 complete control)
Procedure, shortened: as §1

wheat [2] = assay: Test A preemergence; assay type: in vivo, Triticum aestivum; conditions: preemergence; for Wheat plant response rating (0 to 100 scale): 125 g ai/ha, visual injury approx. 10 days after treatment; for Wheat plant response rating: 500 g ai/ha, visual injury after approx. 10 days, 0 to 100 scale (0 no effect, 100 complete control)
Procedure, shortened: as §1

foxtail, giant [3] = assay: Test A postemergence; assay type: in vivo, Setaria faberii
Procedure, shortened: as §1

sedge, umbrella = assay: Test B flood; assay type: in vivo, Cyperus difformis; conditions: 250 g ai/ha, visual rating on 0 to 100 scale (0 no effect, 100 complete control), 13 to 15 days
Procedure, shortened: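 Plants were grown to the 2-leaf stage and pots flooded to 3 cm above soil. Compounds were applied directly into the paddy water, with depth kept for the test. After 13–15 days in greenhouse, response was rated visually against controls on a 0 (no effect) to 100 (complete control) scale.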

wheat [4] = assay: Test C preemergence; assay type: in vivo, Triticum aestivum; conditions: preemergence; for Plant response rating, Wheat: 125 g ai/ha, scale 0 to 100, 0 = no effect, 100 = complete control
Procedure, shortened: (§2)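 Greenhouse pot test: preemergence application onto freshly seeded loam/sand mix, postemergence application onto seedlings (1–4 leaves, 2–18 cm) in peat-vermiculite substrate. Responses scored visually 13 to 15 days later relative to controls, where 0 means no effect and 100 means complete control; a dash indicates no result.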

corn = assay: Test C preemergence; assay type: in vivo, Zea mays; conditions: preemergence; for Plant response rating, Corn: 125 g ai/ha, scale 0 to 100, 0 = no effect, 100 = complete control
Procedure, shortened: as §2

johnsongrass = assay: Test C preemergence; assay type: in vivo, Sorghum halepense; conditions: preemergence; for Plant response rating, Johnsongrass: 125 g ai/ha, scale 0 to 100, 0 = no effect, 100 = complete control
Procedure, shortened: as §2

ragweed = assay: Test C preemergence; assay type: in vivo, Ambrosia elation; conditions: preemergence; for Plant response rating, Ragweed: 125 g ai/ha, scale 0 to 100, 0 = no effect, 100 = complete control
Procedure, shortened: as §2

blackgrass = assay: Test C postemergence; assay type: in vivo, Alopecurus myosuroides; conditions: for Plant response rating (scale of 0 to 100 where 0 is no effect and 100 is complete control), Blackgrass: Postemergence, 31 g ai/ha, visually evaluated after 13 to 15 days; for Blackgrass plant response rating / Plant response rating, Blackgrass: postemergence; for Blackgrass plant response rating: 62 g ai/ha, scale 0 to 100
Procedure, shortened: as §2

crabgrass, large [5] = assay: Test C postemergence; assay type: in vivo, Digitaria sanguinalis; conditions: for Plant response rating (scale of 0 to 100 where 0 is no effect and 100 is complete control), Crabgrass, Large: Postemergence, 31 g ai/ha, visually evaluated after 13 to 15 days; for Crabgrass, Large plant response rating / Plant response rating, Crabgrass, Large: postemergence; for Crabgrass, Large plant response rating: 62 g ai/ha, scale 0 to 100
Procedure, shortened: as §2

foxtail, giant [6] = assay: Test C postemergence; assay type: in vivo, Setaria faberii; conditions: for Plant response rating (scale of 0 to 100 where 0 is no effect and 100 is complete control), Foxtail, Giant: Postemergence, 31 g ai/ha, visually evaluated after 13 to 15 days; for Foxtail, Giant plant response rating / Plant response rating, Foxtail, Giant: postemergence; for Foxtail, Giant plant response rating: 62 g ai/ha, scale 0 to 100
Procedure, shortened: as §2

waterhemp = assay: Test C postemergence; assay type: in vivo, Amaranthus rudis; conditions: postemergence; for Plant response rating, Waterhemp: 250 g ai/ha, scale 0 to 100 (0 no effect, 100 complete control); for Waterhemp plant response rating: scale 0 to 100
Procedure, shortened: as §2

[7] = Postemergence, 500 g ai/ha, 0 to 100 scale (0 no effect, 100 complete control)
[8] = postemergence, 125 g ai/ha, about 10 days, visual rating on 0 to 100 scale (0 no effect, 100 complete control)
[9] = 31 g ai/ha, visual rating, scale 0 to 100 (0 no effect, 100 complete control), 13 to 15 days
[10] = 62 g ai/ha, scale 0 to 100 (0 no effect, 100 complete control), 13 to 15 days
[11] = 250 g ai/ha, scale 0 to 100, 0 is no effect, 100 is complete control
[12] = 250 g ai/ha, scale 0 to 100 (0 no effect, 100 complete control)
[13] = 125 g ai/ha, scale 0 to 100, 0 no effect, 100 complete control

Row | SMILES | Crabgrass, Large plant response rating (0 to 100 scale) (crabgrass, large [1]) | Crabgrass, Large plant response rating (crabgrass, large [1]) | Velvetleaf plant response rating (0 to 100 scale) (velvetleaf) | Wheat plant response rating (0 to 100 scale) (wheat [2]) | Foxtail, Giant plant response rating (foxtail, giant [3]; [7]) | Plant response rating, Sedge, Umbrella (sedge, umbrella) | Wheat plant response rating (wheat [4]; [9]) | Wheat plant response rating (wheat [4]; [10]) | Plant response rating, Wheat (wheat [4]; 13 to 15 days) | Wheat plant response rating (wheat [4]; [11]) | Corn plant response rating (corn; [9]) | Corn plant response rating (corn; [10]) | Plant response rating, Corn (corn; 13 to 15 days) | Corn plant response rating (corn; [11]) | Johnsongrass plant response rating (johnsongrass; [9]) | Johnsongrass plant response rating (johnsongrass; [10]) | Plant response rating, Johnsongrass (johnsongrass; 13 to 15 days) | Johnsongrass plant response rating (johnsongrass; [11]) | Ragweed plant response rating (ragweed; [9]) | Ragweed plant response rating (ragweed; [10]) | also measured
1 | CCCNC(=O)c1cc(OCC)n(Cc2ccnc(C(F)(F)F)c2)n1 [Compound 187] | 100 | 100 | 100 | 80 | 90 | 90 | 20 | 80 | 90 | 90 | 20 | 85 | 95 | 98 | 75 | 98 | 100 | 100 | 80 | 100 | Velvetleaf plant response rating (velvetleaf): 100; Wheat plant response rating (wheat [2]): 100; Foxtail, Giant plant response rating (foxtail, giant [3]; [8]): 90; Plant response rating, Ragweed (ragweed; 13 to 15 days): 98; Ragweed plant response rating (ragweed; [11]): 100; Plant response rating (scale of 0 to 100 where 0 is no effect and 100 is complete control), Blackgrass (blackgrass): 10; Blackgrass plant response rating (blackgrass): 5; Plant response rating, Blackgrass (blackgrass; [12]): 80; Plant response rating, Blackgrass (blackgrass; [13]): 30; Plant response rating (scale of 0 to 100 where 0 is no effect and 100 is complete control), Crabgrass, Large (crabgrass, large [5]): 10; Crabgrass, Large plant response rating (crabgrass, large [5]): 20; Plant response rating, Crabgrass, Large (crabgrass, large [5]; [12]): 95; Plant response rating, Crabgrass, Large (crabgrass, large [5]; [13]): 60; Plant response rating (scale of 0 to 100 where 0 is no effect and 100 is complete control), Foxtail, Giant (foxtail, giant [6]): 5; Foxtail, Giant plant response rating (foxtail, giant [6]): 10; Plant response rating, Foxtail, Giant (foxtail, giant [6]; [12]): 70; Plant response rating, Foxtail, Giant (foxtail, giant [6]; [13]): 45; Plant response rating, Waterhemp (waterhemp): 95; Waterhemp plant response rating (waterhemp): 70
2 | CCCc1cc(C(=O)NC(C)C)nn1Cc1cc(C(F)(F)F)nn1C [Compound 201] | 100 | 100 | 100 | 80 | 100 | 95 | 80 | 85 | 90 | 90 | 40 | 60 | 70 | 95 | 85 | 85 | 100 | 100 | 80 | 85 | Velvetleaf plant response rating (velvetleaf): 100; Wheat plant response rating (wheat [2]): 100; Foxtail, Giant plant response rating (foxtail, giant [3]; [8]): 90; Plant response rating, Ragweed (ragweed; 13 to 15 days): 95; Ragweed plant response rating (ragweed; [11]): 98; Plant response rating (scale of 0 to 100 where 0 is no effect and 100 is complete control), Blackgrass (blackgrass): 20; Blackgrass plant response rating (blackgrass): 5; Plant response rating, Blackgrass (blackgrass; [12]): 60; Plant response rating, Blackgrass (blackgrass; [13]): 15; Plant response rating (scale of 0 to 100 where 0 is no effect and 100 is complete control), Crabgrass, Large (crabgrass, large [5]): 15; Crabgrass, Large plant response rating (crabgrass, large [5]): 10; Plant response rating, Crabgrass, Large (crabgrass, large [5]; [12]): 50; Plant response rating, Crabgrass, Large (crabgrass, large [5]; [13]): 15; Plant response rating (scale of 0 to 100 where 0 is no effect and 100 is complete control), Foxtail, Giant (foxtail, giant [6]): 10; Foxtail, Giant plant response rating (foxtail, giant [6]): 10; Plant response rating, Foxtail, Giant (foxtail, giant [6]; [12]): 85; Plant response rating, Foxtail, Giant (foxtail, giant [6]; [13]): 30; Plant response rating, Waterhemp (waterhemp): 85; Waterhemp plant response rating (waterhemp): 70
3 | CCCc1cc(C(=O)NC2CC2)nn1Cc1cc(C(F)(F)F)nn1C [Compound 202] | 100 | 100 | 30 | 30 | 90 | 80 | 0 | 85 | 85 | 90 | 5 | 35 | 60 | 95 | 50 | 85 | 100 | 100 | 75 | 95 | Velvetleaf plant response rating (velvetleaf): 100; Wheat plant response rating (wheat [2]): 100; Foxtail, Giant plant response rating (foxtail, giant [3]; [8]): 90; Plant response rating, Ragweed (ragweed; 13 to 15 days): 95; Ragweed plant response rating (ragweed; [11]): 100; Plant response rating (scale of 0 to 100 where 0 is no effect and 100 is complete control), Blackgrass (blackgrass): 5; Blackgrass plant response rating (blackgrass): 10; Plant response rating, Blackgrass (blackgrass; [12]): 30; Plant response rating, Blackgrass (blackgrass; [13]): 20; Plant response rating (scale of 0 to 100 where 0 is no effect and 100 is complete control), Crabgrass, Large (crabgrass, large [5]): 5; Crabgrass, Large plant response rating (crabgrass, large [5]): 10; Plant response rating, Crabgrass, Large (crabgrass, large [5]; [12]): 70; Plant response rating, Crabgrass, Large (crabgrass, large [5]; [13]): 25; Plant response rating (scale of 0 to 100 where 0 is no effect and 100 is complete control), Foxtail, Giant (foxtail, giant [6]): 5; Foxtail, Giant plant response rating (foxtail, giant [6]): 10; Plant response rating, Foxtail, Giant (foxtail, giant [6]; [12]): 35; Plant response rating, Foxtail, Giant (foxtail, giant [6]; [13]): 10; Plant response rating, Waterhemp (waterhemp): 90; Waterhemp plant response rating (waterhemp): 85
4 | CCc1cc(C(=O)NCC(F)(F)F)nn1Cc1ccnc(SC(F)(F)F)c1 [Compound 214] | 100 | 100 | 100 | 80 | 100 | 95 | 0 | 0 | 10 | 40 | 0 | 0 | 35 | 40 | 0 | 40 | 75 | 90 | 85 | 98 | Foxtail, Giant plant response rating (foxtail, giant [3]; Postemergence, 125 g ai/ha, 0 to 100 scale, 0 no effect, 100 complete control): 100; Plant response rating, Ragweed (ragweed; 13 to 15 days): 100; Ragweed plant response rating (ragweed; [11]): 98; Plant response rating (scale of 0 to 100 where 0 is no effect and 100 is complete control), Blackgrass (blackgrass): 5; Blackgrass plant response rating (blackgrass): 5; Plant response rating, Blackgrass (blackgrass; [12]): 50; Plant response rating, Blackgrass (blackgrass; [13]): 10; Plant response rating (scale of 0 to 100 where 0 is no effect and 100 is complete control), Crabgrass, Large (crabgrass, large [5]): 5; Crabgrass, Large plant response rating (crabgrass, large [5]): 5; Plant response rating, Crabgrass, Large (crabgrass, large [5]; [12]): 55; Plant response rating, Crabgrass, Large (crabgrass, large [5]; [13]): 20; Plant response rating (scale of 0 to 100 where 0 is no effect and 100 is complete control), Foxtail, Giant (foxtail, giant [6]): 5; Foxtail, Giant plant response rating (foxtail, giant [6]): 5; Plant response rating, Foxtail, Giant (foxtail, giant [6]; [12]): 20; Plant response rating, Foxtail, Giant (foxtail, giant [6]; [13]): 15; Plant response rating, Waterhemp (waterhemp): 70; Waterhemp plant response rating (waterhemp): 60
